From article PMC4657054, “First Structural View of a Peptide Interacting with the Nucleotide Binding Domain of Heat Shock Protein 90” (Scientific Reports, 2015)
Residues, ends and D or L forms follow the SMILES beside them. No end group written: not given here.

Tests used:
[1] = target: T1, HspD (Hsp90 of Dictyostelium discoideum) (Dictyostelium discoideum, UniProt P54651); experiment: ATPase activity of HspD (pRSET A construct) in presence of peptide; assay type: biochemical; conditions: for inhibition of ATPase activity of HspD: pre-incubation 0.5 h room temperature, reaction 37 °C 1 h
T1 construct: We had earlier reported the activity studies of the full length protein; hexahistidine tag (N); pRSET A vector linker containing Gly-Arg-Asp-Leu-Tyr-Asp-Asp (N); made in house; host or cells: E. coli Rosetta
Procedure: ATPase assay for HspD was carried out in presence of varying concentrations of the peptide and fixed ATP concentration of 500 μM. In presence of the peptide, there is a significant dose dependent inhibition of ATPase activity of HspD, starting from 5 mM concentration of the peptide (Fig. 5a).
(§1) The genes for HspD and HspD-NTD were cloned into pRSET A vector, using the following primers: 5′ […] 3′ as forward primer and 5′ […] 3′ as reverse primer for HspD as described previously, and 5′ […] 3′ as forward primer and 5′[…] 3′ as reverse primer for HspD-NTD, containing BamHI and XhoI sites (underlined) in forward and reverse primers, respectively. The proteins, HspD and HspD-NTD, were expressed as hexa histidine tagged fusion proteins in E. coli Rosetta strain. The cells were grown in Terrific broth and induced with 1 mM isopropyl β-D-1-thiogalactopyranoside at 15 °C for 15 hours. The proteins were purified by nickel-NTA affinity chromatography. The column was washed with imidazole gradient ranging from 5 mM to 30 mM in 50 mM Tris, pH 7.5, 500 mM NaCl, buffer. The proteins were finally eluted with 300 mM imidazole, followed by gel filtration with Sephacryl S-200 HR column and stored in 25 mM Tris and 200 mM NaCl, pH 7.5 buffer. The clone for human Hsp90 in pRSET A vector was expressed in E. coli Rosetta strain, and the protein was purified to homogeneity by nickel-NTA affinity chromatography, as described previously[31] and dialysed to exchange buffer containing 40 mM Tris-Cl, pH 7.5, 100 mM KCl and 5 mM MgCl2 for the ATPase assay. For the new construct the gene for HspD and HspD-NTD were cloned in pET-28a vector, which lacks the bound peptide sequence. The proteins were expressed and purified using the same protocol as described above.
In order to check the effect of the peptide binding on the ATPase activity of HspD and human Hsp90, purified proteins (2 μM) were incubated with varying peptide concentrations in 40 mM Tris–Cl buffer, pH 7.4, containing 100 mM KCl and 5 mM MgCl2, at room temperature for half hour. ATPase reaction was carried out in the presence of fixed ATP concentration of 500 μM at 37 °C for one hour. γ-^32P-ATP with a specific activity of 0.55 Ci/mmol was used as a tracer. ATP hydrolysis was monitored on a PEI- cellulose TLC plate. Fractional cleavage of ATP was calculated for each peptide concentration. ATPase activity of Hsp90 alone was considered 100%, and percent change in ATPase activity was plotted against peptide concentration.

[2] = target: T2, HspD, new construct (pET-28a) (Dictyostelium discoideum, UniProt P54651); experiment: ATPase activity of new construct of HspD (pET-28a, lacking the linker peptide sequence) in presence of peptide; assay type: biochemical; conditions: 13.5 mM peptide (highest concentration), pET-28a construct, 500 μM ATP, mean ± SEM, n = 2
T2 construct: made in house; host or cells: E. coli Rosetta (same protocol)
Procedure: Bio-Layer Interferometry experiments were carried out to check the binding of the peptide RELWDD. […] The peptide can be further modified to improve the binding efficacy, thereby reducing the inhibitory concentration required to inhibit Hsp90 function.
The genes for HspD and HspD-NTD were cloned into pRSET A vector, using the following primers: 5′ […] 3′ as forward primer and 5′ […] 3′ as reverse primer for HspD as described previously, and 5′ […] 3′ as forward primer and 5′[…] 3′ as reverse primer for HspD-NTD, containing BamHI and XhoI sites (underlined) in forward and reverse primers, respectively. The proteins, HspD and HspD-NTD, were expressed as hexa histidine tagged fusion proteins in E. coli Rosetta strain. The cells were grown in Terrific broth and induced with 1 mM isopropyl β-D-1-thiogalactopyranoside at 15 °C for 15 hours. The proteins were purified by nickel-NTA affinity chromatography. […]
(§2) In order to check the effect of the peptide binding on the ATPase activity of HspD and human Hsp90, purified proteins (2 μM) were incubated with varying peptide concentrations in 40 mM Tris–Cl buffer, pH 7.4, containing 100 mM KCl and 5 mM MgCl2, at room temperature for half hour. […] ATP hydrolysis was monitored on a PEI- cellulose TLC plate. Fractional cleavage of ATP was calculated for each peptide concentration. […]

[3] = target: T3, HspD-NTD (pET-28a construct lacking the linker peptide) (Dictyostelium discoideum, UniProt P54651); experiment: biochemical; assay type: binding
T3 construct: the crystal structure of the N-terminal domain of HspD (HspD-NTD); made in house; host or cells: E. coli Rosetta (same protocol)
Procedure: The binding of the peptide RELWDD to HspD-NTD construct lacking the linker peptide was measured by Bio-Layer Interferometry using an Octet RED96 instrument (ForteBio, Inc.). The peptide was immobilized onto Amine Reactive Second-Generation (AR2G) Biosensors. Binding studies were performed by dipping the biosensors in varying concentrations of HspD-NTD. An equal number of unliganded sensors was used as control, to account for non-specific binding. The traces were processed using ForteBio Data Analysis Software, ver. 8.0.3.5, exported and fit globally using Biaevaluation 3.0.1. A simple 1:1 Langmuir interaction model was used for fitting the data.
Figure S1. Binding of HspD-NTD to the peptide RELWDD using Bio-layer Interferometry.
concentrations of the protein.
(1 picture or pasted object on this page, not shown here)

human Hsp90 [4] = target: T4, human Hsp90 (Homo sapiens, UniProt P07900); experiment: ATPase activity of human Hsp90 in presence of peptide; assay type: biochemical; design: made in house; host or cells: E. coli Rosetta; conditions: human Hsp90 2 μM, 500 μM ATP
Procedure: Lys47 of HspD-NTD is observed to be in a different rotamer conformation as compared to Lys58 of the human isoform, due to the former’s interaction with the residues of the peptide. Lys58 of the human Hsp90 is likely to adopt a similar conformation in the presence of a similar peptide. The water molecules interacting with Asn40 and Asp82 in the case of HspD-NTD are also found to be conserved in human Hsp90-NTD structure. […] In order to validate this, ATPase assay was performed for human Hsp90 in the presence of the modified peptide. […] This observation that the peptide binds to the NTD and inhibits its ATPase activity paves way for the development of new class of peptide-based inhibitors for Hsp90.
as §1, with “The clone for human Hsp90 in pRSET A vector was expressed in E. coli Rosetta strain, and the protein was purified to homogeneity by nickel-NTA affinity chromatography, as described previously[31] and dialysed to exchange buffer containing 40 mM Tris-Cl, pH 7.5, 100 mM KCl and 5 mM MgCl2 for the ATPase assay. For the new construct the gene for HspD and HspD-NTD were cloned in pET-28a vector, which lacks the bound peptide sequence. The proteins were expressed and purified using the same protocol as described above.” left out
as §2

[5] = target: T5, N-terminal domain of Hsp90 of Dictyostelium discoideum (HspD-NTD), pRSET A construct (Dictyostelium discoideum, UniProt P54651 1-225); experiment: crystal structure; hanging drop, 15 mg/mL HspD-NTD, 0.1 M HEPES pH 7.0-8.0, 10-30% PEG3350; no peptide added, the peptide comes from the vector stretch of the fusion protein; 1.2 Å; conditions: both partners purified
T5 construct: 'a total of 225 residues', the first 214 seen in the density; forward primer starts at the ATG of the gene, reverse primer encodes ...ETTAK-stop; Expressed from pRSET A with a vector stretch (holding GRDLYDD) between the N-terminal hexahistidine tag and the NTD; source: E. coli Rosetta, purified (nickel-NTA, gel filtration on Sephacryl S-200 HR)

[6] = target: Hsp90 of Dictyostelium discoideum (HspD), full length, pRSET A construct (Dictyostelium discoideum) (UniProt P54651)
human Hsp90 [7] = target: T4, human Hsp90
[8] = target: new construct of HspD, full length, in pET-28a (Dictyostelium discoideum) (UniProt P54651)
Chain of new construct of HspD, full length, in pET-28a (Dictyostelium discoideum) (P54651 whole entry): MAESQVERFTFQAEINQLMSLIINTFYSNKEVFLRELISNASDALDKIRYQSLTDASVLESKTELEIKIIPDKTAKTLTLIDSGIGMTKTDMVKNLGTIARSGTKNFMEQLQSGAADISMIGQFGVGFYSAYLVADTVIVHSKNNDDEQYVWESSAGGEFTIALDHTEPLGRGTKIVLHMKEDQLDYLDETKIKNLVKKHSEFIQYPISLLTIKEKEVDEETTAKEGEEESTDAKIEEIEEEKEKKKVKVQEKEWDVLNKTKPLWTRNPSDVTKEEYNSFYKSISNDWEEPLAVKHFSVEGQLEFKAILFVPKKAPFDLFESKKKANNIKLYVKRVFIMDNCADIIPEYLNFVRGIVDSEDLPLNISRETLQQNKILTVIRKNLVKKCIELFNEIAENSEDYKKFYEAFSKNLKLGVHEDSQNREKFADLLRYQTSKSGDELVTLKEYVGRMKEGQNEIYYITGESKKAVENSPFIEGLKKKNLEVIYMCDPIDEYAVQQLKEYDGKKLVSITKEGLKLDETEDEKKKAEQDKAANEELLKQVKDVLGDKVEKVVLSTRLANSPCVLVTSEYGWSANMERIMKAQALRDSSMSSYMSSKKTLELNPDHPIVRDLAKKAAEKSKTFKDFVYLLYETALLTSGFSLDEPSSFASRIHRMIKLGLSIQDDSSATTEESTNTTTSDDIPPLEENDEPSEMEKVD

T3 sequence (P54651 1-225 limits assumed): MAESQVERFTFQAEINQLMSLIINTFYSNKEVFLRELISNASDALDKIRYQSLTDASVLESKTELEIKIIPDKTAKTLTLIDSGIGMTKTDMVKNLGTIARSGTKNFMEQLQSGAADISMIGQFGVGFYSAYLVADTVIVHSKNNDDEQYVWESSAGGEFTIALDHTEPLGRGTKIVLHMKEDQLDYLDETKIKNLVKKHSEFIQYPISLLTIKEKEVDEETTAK
T1 sequence (P54651 whole entry): as the sequence (P54651 whole entry) above
T5 sequence (P54651 1-225): as the sequence (P54651 1-225 limits assumed) above
T2 sequence (P54651 whole entry): as the sequence (P54651 whole entry) above
Chain of Hsp90 of Dictyostelium discoideum (HspD), full length, pRSET A construct (Dictyostelium discoideum) (P54651 whole entry): as above

CC(C)C[C@H](NC(=O)[C@H](CCC(=O)O)NC(=O)[C@@H](N)CCCNC(=N)N)C(=O)N[C@@H](Cc1c[nH]c2ccccc12)C(=O)N[C@@H](CC(=O)O)C(=O)N[C@@H](CC(=O)O)C(=O)O [RELWDD, Arg-Glu-Leu-Trp-Asp-Asp] (H-RELWDD-OH)
inhibition of ATPase activity of HspD ([1]; 10 mM peptide, HspD 2 μM, 500 μM ATP): 30% | ATPase activity of HspD observed (Hsp90 alone = 100%) ([1]; 13.5 mM peptide (highest concentration), HspD 2 μM, 500 μM ATP, mean ± SEM, n = 5, SEM): 38.50 ± 10.11% | inhibition of ATPase activity of HspD ([1]; 13.5 mM peptide, HspD 2 μM, 500 μM ATP): 60% | ATPase activity of new construct of HspD observed (Hsp90 alone = 100%) [2]: 50.60 ± 4.68% | KD of binding to HspD-NTD, in words [3]: lower micromolar range | kon ([3]; Bio-Layer Interferometry, peptide immobilized on AR2G biosensors, 1:1 Langmuir model, global fit, mean ± standard deviation, SD): 90.6 ± 46.6 M⁻¹ s⁻¹ | Kd ([3]; SD): 28.2 ± 14.6 µM | inhibition of ATPase activity of human Hsp90 (human Hsp90 [4]; 5 mM peptide): 30% | inhibition of ATPase activity of human Hsp90 (human Hsp90 [4]; 10 mM peptide): 55% | ATPase activity of human Hsp90 remaining (Hsp90 alone = 100%) (human Hsp90 [4]; 10 mM peptide, mean ± SEM, n = 2, SEM): 46.91 ± 12.05%

GRDLYDD [GRDLYDD, purchased synthetic peptide]
change in ATPase activity of HspD in the presence of the peptide ([1]; 100 μM-13.5 mM peptide, HspD 2 μM, 500 μM ATP, 37 °C, 1 h, γ-32P-ATP, TLC): no significant change | ATPase inhibition of HspD, in words ([1]; summary statement): no inhibition whatsoever

B1: heptapeptide Gly-Arg-Asp-Leu-Tyr-Asp-Asp (peptide)
peptide: GRDLYDD
notes: numbered from -14 to -8 starting from Gly; No peptide was added for the crystal; also called GRDLYDD; the peptide; source: for the ATPase assay: synthetic peptide, bought: Custom peptide synthesis, USV Limited, Mumbai
binding result [5]: binds

B2: modified hexapeptide Arg-Glu-Leu-Trp-Asp-Asp (peptide)
peptide: RELWDD
modifications: not fully specified
percent inhibition of ATPase activity of HspD (2 μM, 500 μM ATP) with rising peptide RELWDD, inhibition from 5 mM, 30% at 10 mM, highest at 13.5 mM [6]: 60% | percent inhibition of ATPase activity of human Hsp90 (2 μM) with rising peptide RELWDD, 30% at 5 mM, highest at 10 mM (human Hsp90 [7]): 55% | percent ATPase activity left of the new construct of HspD (pET-28a) with rising peptide RELWDD, at the highest concentration of 13.5 mM [8]: 50.6%
